The text below walks through data of PubChem BioAssay (NCI).

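Results reflect a 48-hour exposure of cells in 96-well plates to compound at five concentrations. The concentration for 50% growth inhibition is given as GI50. TGI: concentration producing complete growth inhibition.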

Test systems include LOX IMVI melanoma; HOP-92 NSCLC; MOLT-4 leukemia; TK-10 renal; UO-31 renal; OVCAR-8 ovarian; NCI-H226 lung; KM12 colon; RXF 393 renal; 786-0 renal.
Common to all, as to assay: NCI tumour cell line growth inhibition, 48 h

Consider `CC(CN=C(CC(=O)c1ccc(Br)cc1)c1ccccc1)N=C(CC(=O)c1ccc(Br)cc1)c1ccccc1` (centres undefined), for which the GI50 was 66.1 µM with LOX IMVI melanoma; 11.5 µM in the assay on HOP-92 NSCLC; 7.95 µM in the assay with MOLT-4 leukemia; 7.56 µM with TK-10 renal; 1.66 µM in the assay on UO-31 renal; 34.6 µM with OVCAR-8 ovarian. Besides, the GI50 was 67.3 µM with NCI-H226 lung, 32.3 µM with KM12 colon, 5.59 µM in the assay on RXF 393 renal and 4.2 µM in the assay with 786-0 renal. Further, the TGI with LOX IMVI melanoma is more than 100 µM; in the assay with HOP-92 NSCLC, 78.8 µM; with MOLT-4 leukemia, more than 100 µM; in the assay with TK-10 renal, more than 100 µM; in the assay with UO-31 renal it was more than 100 µM; in the assay on OVCAR-8 ovarian it was more than 100 µM. Further, the TGI in the assay on NCI-H226 lung, with KM12 colon, in the assay with RXF 393 renal and with 786-0 renal was more than 100 µM in each case.

`COc1ccc(-c2ccc(/C=C/C(=O)NO)cc2)cc1`: the GI50 with LOX IMVI melanoma is 0.417 µM; with HOP-92 NSCLC, 1.19 µM; in the assay on MOLT-4 leukemia, 0.375 µM; in the assay on TK-10 renal, 1.55 µM; with UO-31 renal it was 0.281 µM; in the assay on OVCAR-8 ovarian it was 0.896 µM. Also, the GI50 is 1.09 µM in the assay on NCI-H226 lung, 1.11 µM in the assay with KM12 colon, 0.554 µM with RXF 393 renal and 0.99 µM in the assay with 786-0 renal. The TGI with LOX IMVI melanoma was 2.61 µM; in the assay with HOP-92 NSCLC it was 4.98 µM; with TK-10 renal it was 21.3 µM; in the assay on UO-31 renal, 2.14 µM; in the assay on OVCAR-8 ovarian, 4.62 µM; with NCI-H226 lung it was 4.39 µM. The TGI is more than 100 µM in the assay on KM12 colon, 3.03 µM in the assay with RXF 393 renal and 3.79 µM in the assay on 786-0 renal.

For the molecule `O=c1[nH]cc(CS(=O)(=O)Cc2c[nH]c(=O)[nH]c2=O)c(=O)[nH]1`, the TGI in the assay with LOX IMVI melanoma, with HOP-92 NSCLC, in the assay with MOLT-4 leukemia, with TK-10 renal, with UO-31 renal and with OVCAR-8 ovarian was more than 100 µM throughout. The TGI with NCI-H226 lung, with KM12 colon, with RXF 393 renal and in the assay with 786-0 renal was more than 100 µM in each case.

For `O=C(N/N=C(/c1nc2ccc(Cl)cc2[nH]c1=O)C(O)c1ccc(Cl)cc1Cl)c1ccncc1` (centres undefined), the TGI in the assay on LOX IMVI melanoma, with HOP-92 NSCLC, with MOLT-4 leukemia, with TK-10 renal, in the assay on UO-31 renal and in the assay on OVCAR-8 ovarian was more than 100 µM throughout. Also, the TGI with NCI-H226 lung, in the assay with KM12 colon, in the assay with RXF 393 renal and in the assay on 786-0 renal was more than 100 µM each time.

`COc1cc([C@@H]2c3cc4c(cc3[C@@H](NC(=O)c3ccc(N)cc3)C3COC(=O)[C@@H]32)OCO4)cc(OC)c1O` (some centres undefined): the TGI in the assay with LOX IMVI melanoma was 18.7 µM; in the assay with HOP-92 NSCLC it was more than 100 µM; in the assay on MOLT-4 leukemia, 3.78 µM; in the assay with TK-10 renal it was 29.7 µM; in the assay on UO-31 renal, 31.1 µM; in the assay with OVCAR-8 ovarian, 16.3 µM. The TGI in the assay on NCI-H226 lung is 6.91 µM; with KM12 colon, 13.8 µM; in the assay on RXF 393 renal it was 67.6 µM; with 786-0 renal it was 3.84 µM.

For the molecule `O=C1c2ccccc2C(=O)c2c1ccc(C(Br)Br)c2[N+](=O)[O-]`, the GI50 with LOX IMVI melanoma was 1.27 µM; with HOP-92 NSCLC it was 1.7 µM; with MOLT-4 leukemia it was 1.23 µM; in the assay on TK-10 renal, 1.95 µM; in the assay with UO-31 renal, 1.52 µM; in the assay on OVCAR-8 ovarian, 1.95 µM. The GI50 in the assay on NCI-H226 lung was 0.727 µM; in the assay with KM12 colon, 1.85 µM; in the assay with RXF 393 renal it was 1.26 µM; in the assay on 786-0 renal, 1.85 µM. Also, the TGI worked out at 2.59 µM in the assay on LOX IMVI melanoma; 3.3 µM in the assay on HOP-92 NSCLC; 3.43 µM in the assay on MOLT-4 leukemia; 3.84 µM in the assay with TK-10 renal; 2.93 µM in the assay with UO-31 renal; 4.35 µM in the assay with OVCAR-8 ovarian. Also, the TGI in the assay on NCI-H226 lung worked out at 2.62 µM; in the assay with KM12 colon it was 3.81 µM; in the assay on RXF 393 renal, 2.72 µM; in the assay with 786-0 renal, 3.45 µM.

Consider `Cc1ccc2nc3c(C)c(Cl)c(=O)cc-3sc2c1`, for which the TGI was 33.6 µM in the assay on LOX IMVI melanoma; more than 92.3 µM with HOP-92 NSCLC; 41.3 µM in the assay with MOLT-4 leukemia; more than 100 µM with TK-10 renal; 67.4 µM with UO-31 renal; more than 100 µM in the assay on OVCAR-8 ovarian. Also, the TGI in the assay with NCI-H226 lung was 64 µM; in the assay with KM12 colon, 74.1 µM; in the assay with RXF 393 renal, 73.7 µM; in the assay with 786-0 renal, more than 100 µM.

Take `COC(=O)C1=C(OC)c2cc3c(cc2C(c2cc(OC)c(OC)c(OC)c2)C1C(=O)OC)OCO3` (centres undefined): the TGI in the assay with LOX IMVI melanoma, in the assay with HOP-92 NSCLC, in the assay on MOLT-4 leukemia, in the assay on TK-10 renal, in the assay with UO-31 renal and in the assay with OVCAR-8 ovarian was more than 100 µM in each case. Also, the TGI in the assay on NCI-H226 lung, in the assay on KM12 colon, in the assay with RXF 393 renal and in the assay on 786-0 renal was more than 100 µM each time.

Consider `O=C1c2ccccc2C(=O)c2c(NCCCNCCO)ccc(NCCCNCCO)c21`, for which the TGI amounted to 14.9 µM with LOX IMVI melanoma; 26.2 µM in the assay on HOP-92 NSCLC; 18.5 µM with MOLT-4 leukemia; 40.6 µM in the assay on TK-10 renal; 28.4 µM with UO-31 renal; 31 µM in the assay with OVCAR-8 ovarian. The TGI worked out at 12.3 µM with NCI-H226 lung, 18.4 µM with KM12 colon, 18.2 µM in the assay on RXF 393 renal and 16.6 µM in the assay on 786-0 renal.
